Assay results from US20230226079A1, “METHODS AND COMPOSITIONS FOR TREATMENT OF SOLID TUMORS” (Saint Louis University, priority 2022, published 2023).
≈ marks a conversion by molar mass, not a printed value.

Key:
[1] = system: normal oral keratinocytes (NOK); test: Cytotoxicity assay in normal oral keratinocytes; type: cell-based, human; details: 48 h
Description: (§1) Normal oral keratinocytes (NOK) (kindly gifted by Dr. Karl Mugner, Tuffs University, Boston, MA, USA) were maintained in Keratinocyte SFM medium supplemented with EGF and bovine pituitary extract (GIBCO, Life Technologies, Berkeley, MO, USA) and 1% penicillin/ streptomycin. HNC cell line Ca127 was purchased from the ATCC. JHU029 (JHU-29) and JHU022 (JHU-22) cell lines were procured from the Johns Hopkins University (Baltimore, MD, USA). The Ca127 and JHU022 cells were maintained in Dulbecco's Modified Eagle Medium (DMEM), and JHU029 cells were in RPMI1640 (Sigma, St. Louis, Mo., USA) media supplemented with 10% FBS and 1% penicillin/ streptomycin (Sigma-Aldrich, St. Louis, Mo., USA) in a humidified CO2 incubator. The cell lines are routinely tested in the Inventors' laboratory to rule out mycoplasma contamination using a commercial Mycoplasma Detection kit (MycoAlert™, Lonza, Morrisville, N.C., USA). Ca127 cells are tongue origin and JHU022 and JHU029 cells are from larynx origin.
Ca127, JHU029, JHU022 and NOK were seeded in 96 well-plate (5000 cells/well) and cells were treated with different concentration of M-I for 48 h. There were untreated control and DMSO treated vehicle control group for comparison. Cytotoxicity assay was performed using Cell Counting Kit-8 (Dojindo Molecular Technology, Rockville, Md., USA) according to manufacturer instruction.

[2] = system: Ca127 xenograft; test: Tumorigenicity assay, Ca127 xenograft model; type: in vivo, nude mice; details: M-I 30 mg/kg IP once a day, BME 30% in drinking water
Description: (§2) JHU029 or Ca127 cells (1.5 10^6) containing 40% Matrigel were injected subcutaneously into the flank of BALB/c athymic nude mice (7-8 weeks old). When the palpable tumor was developed (>60 mm3), mice were divided into three groups randomly, 5 mice in each group. The control group was without any treatment. The BME group received 30% (v/v) BME through drinking water. M-I group received 30 mg/kg dose of M-I once in day, every day. Body weight was monitored, and tumor size was measured using a slide caliper and volume was calculated using the formula 1/2 L X W2. After animal sacrifice tumors were dissected out and snap frozen in liquid nitrogen for further analysis. All the animal experiments were carried out in accordance NIH guidelines, following a protocol approved (1017) by the Institutional Animal Care and Use Committee (IACUC) of Saint Louis University.

[3] = system: JHU029 cells; test: Cytotoxicity assay (Cell Counting Kit-8) in JHU029 cells; type: cell-based; details: 48 h, treated for 48 h; read-out: IC50 dose, JHU029 cells
Description: as §1
Bitter melon extract (BME) was prepared from the Chinese variety of young bitter melons (raw and green) as described previously (Rajamoorthi et al. (2013) PLoS ONE; 8, e78006). Briefly, BME was prepared by aqueous extraction from whole fruit without seeds using a household juicer at room temperature with subsequent centrifugation at 15000 g at 4 C for 30 min. BME was stored at −80 C for further analysis. […]

[4] = system: c-Met and c-Myc; test: Western blot of Ca127 tumor lysates; type: in vivo, nude mice; details: Ca127 xenograft tumors
Description: Lysates from control, BME or M-I treated cells and tumors were prepared using 2 SDS sample buffer and subjected to western blot analysis using specific antibodies to c-Met (1:500, Cell Signaling Technology, CST, Denvers, Mass., USA,), phospho-STAT3 (pSTAT3-Tyr-705) (1:1000, CST), total STAT3 (1:1000, CST), c-Myc (1:1000, CST), surviving (1:500, Santa Cruz Biotechnology, SBT, Dallas, Tex., USA) and cyclin D1 (1: 500, SBT). HRP conjugated anti-mouse or anti-rabbit secondary antibodies were purchased from Bio-Rad (Hercules, Calif., USA). The blot was reprobed with HRP conjugated -actin antibody (1:5000; SBT) to compare protein load in each lane. Densitometry analysis was done using Image J software (NIH, Bethesda, Md., USA).
as §2, with “All the animal experiments were carried out in accordance NIH guidelines, following a protocol approved (1017) by the Institutional Animal Care and Use Committee (IACUC) of Saint Louis University.” left out

[5] = system: rat cardiac fibroblasts; details: cited from earlier work
[6] = system: 4T1 cells; test: Cell viability of 4T1 cells; type: cell-based; details: Mus musculus, 72h
Description: FIG. 8 illustrates 4T1 and MDA-MB-231 cells treated with M-I at indicated doses for 72h. The viability of control cells was arbitrarily set to 100%. Results shown are an average of three independent experiments. Data are represented as mean±SD.
(§3) The Inventors tested human MDA-MB-231 and mouse 4T1 cells in dose dependent manner (FIG. 8). […] The Inventors also tested other compounds in TNBC cell cytotoxicity assays, but these required much higher amounts (>[…]) even for ˜40% cell death.

[7] = system: TNBC cell lines MDA-MB-231, BT459 and MDA-MB-468; test: TNBC cell cytotoxicity assays; type: cell-based
Description: as §3

[8] = system: JHU029 xenograft; test: Tumorigenicity assay, JHU029 xenograft model; type: in vivo, nude mice
Description: as §2

CC(C)=CC(O)CC(C)[C@H]1CC[C@@]2(C)[C@@H]3[C@@H](O)C=C4[C@@H](CC[C@H](O)C4(C)C)[C@]3(C=O)CC[C@]12C (stereo partly drawn) [M-I, (3S, 7S, 8S, 9R, 10R, 13R, 14S, 17R) 3,7-dihydroxy-17-(4-hydroxy-6-methylhept-5-en-2-yl)-4,4,13,14-tetramethyl-2,3,7,8,10,11, 12,15, 16,17-decahydro-1H-cyclopenta[a]phenanthrene-9-carbaldehyde]
effect on human normal oral keratinocytes (NOK) [1]: minimum effect
reduction of tumor growth [2]: −50%
body weight ([2]; throughout the experiment): increasing body weight
IC50 [3]: < 8 mg/L
c-Met and c-Myc expression in tumors versus control [4]: significant reduction
high-glucose-induced cell proliferation and collagen synthesis [5]: inhibitory effects
IC50 [6]: 5 mg/L (≈ 10.6 µM)
cell growth of TNBC cell lines [7]: inhibits cell growth in a time-dependent manner
reduction of tumor growth, M-I compared with BME ([8]; M-I 30 mg/kg IP once a day versus BME 30% in drinking water): better effect
tumor volume ([8]; M-I 30 mg/kg IP once a day, BME 30% in drinking water, sacrifice day 32): significantly reduced tumor volume
sudden drop in body weight ([8]; three out of five mice, Day 20, M-I 30 mg/kg IP once a day, weight gained back): −10%
